Experimental findings from patent publication US12667568B2, “Compositions and methods for the treatment and diagnosis of cancer” (The General Hospital Corporation, priority 2020, dated 2026) are described below.

Molecules are shown by their SMILES.

In this experiment the target is T1, TRDMT1 (Homo sapiens, UniProt O14717).
T1 construct: SCE WT cells were transfected with TA-KR and were cultured with 2.5 μM/L compound YW-1842 or not for 6 hours; endogenous in cells
T1 sequence (O14717 1-391): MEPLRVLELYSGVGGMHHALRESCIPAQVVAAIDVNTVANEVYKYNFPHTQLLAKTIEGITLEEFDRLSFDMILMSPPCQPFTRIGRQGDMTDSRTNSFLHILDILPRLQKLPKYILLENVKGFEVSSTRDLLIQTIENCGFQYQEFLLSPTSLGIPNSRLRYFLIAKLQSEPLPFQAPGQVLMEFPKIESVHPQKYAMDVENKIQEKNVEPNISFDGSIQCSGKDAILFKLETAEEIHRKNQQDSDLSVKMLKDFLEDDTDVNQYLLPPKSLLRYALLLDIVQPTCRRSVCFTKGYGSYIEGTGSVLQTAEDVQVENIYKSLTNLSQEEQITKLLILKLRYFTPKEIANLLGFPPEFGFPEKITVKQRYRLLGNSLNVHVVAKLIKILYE
Briefly: m5C staining at TA-KR DNA damage sites. Format: cell-based. As to the method:
FIGS. 6A-6E show TRDMT1 Inhibitors specifically sensitizes cells to DNA damage agents. (FIG. 6A) SCE WT cells were transfected with TA-KR and were cultured with 2.5 μM/L compound YW-1842 or not for 6 hours, m^5C (n=3, 50 cells per replicated, Mean±SD) was stained and quantified. DR-GFP (FIG. 6B) or EJ5-GFP (FIG. 6C) cells were pre-treated with 2.5 μM/L compound YW-1842 for 6 h or TRDMT1 siRNA for 48 h, or DMSO. Then the cells were transfected with NLS-I-SceI plasmid to induce DSB. The efficiency of HR (FIG. 6B) or NHEJ (FIG. 6C) was analyzed by flow-cytometry (n=3, Mean f SD). (FIG. 6D) After seeding, MCF-7, HCC1954, and HCC1937 cells were pre-treated with or without 2.5 μM/L compound YW-1842 for 6 h, then cultured with chemotherapy drugs (1 μM/L Cisplatin; 1 μM/L ATRi AZ20; […]; 1 μM/L PARPi Olaparib for 10 days. The survival rate of these cells was analyzed (n=3, Mean±SD). (FIG. 6E) TRDMT1 KO U2OS cells were transfected with GFP-TRDMT1^WT or GFP-TRDMT1^G155V with or without 2.5 μM/L compound YW-1842, the survival rate of these cells after IR or Cisplatin was shown (n=3, Mean±SD).
The Olympus FV1000 confocal microscopy system (Cat. FIOPRDMYR-1, Olympus) and FV1000 software were used for the acquisition of images. Cells were cultured in 35 mm glass-bottom dishes (MatTek, P35GC-1.5-14-C) before observation. […] The intensity was measured by ImageJ 1.52i software. […]

Take `COc1cc2nc(-n3cc(-c4ccc(S(C)(=O)=O)cc4)cn3)nc(-c3ccsc3)c2cc1OC` [YW-1842, 6,7-dimethoxy-2-(4-(4-(methylsulfonyl)phenyl)-1H-pyrazol-1-yl)-4-(thiophen-3-yl)quinazoline]: under “2.5 μM/L, 6 hours, TA-KR sites (FIG. 6A)”, the “m^5C inhibitory activity” value was “almost equivalent to TRDMT1 depletion”. For the setting “summary statement”, the “inhibiting TRDMT1 recruitment, m^5C formation and HR efficiency at DNA damage sites” value is listed as “performed well”.
